Experimental data taken from patent US11104648B2, “Pyrazole derivative” (Zhejiang Research Institute of Chemical Industry Co., Ltd., priority 2018, dated 2021).
Like-named read-outs stand apart in the source and are kept apart here.

How the values were obtained:
Format in all cases: in vivo
[1] = tested on: Eggs of Tetranychus Cinnabarinus; assay: Activity assay of eggs of Tetranychus cinnabarinus (spray method, ovicidal); conditions: Tetranychus cinnabarinus; for pest or weed control at 2 µg/mL: concentration 2 mg/L
Summary of the method: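 Female mites laid eggs on broad bean leaves for 24 h, adults removed, eggs sprayed with compound in DMF (≤10%)/1‰ Tween 80. Held at 26±2° C, 70–80% humidity, 16 h light; unhatched eggs counted dead once blank control hatched. Three replicates.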

[2] = tested on: Tetranychus cinnabarinus Nymphs; assay: Activity assay of Tetranychus cinnabarinus nymphs (spray on broad bean leaves)
Summary of the method: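 Compound in DMF (≤10%) diluted in 1‰ Tween 80 water was sprayed onto broad bean leaves carrying nymphs hatched from eggs laid by female adults over 24 h. Kept at 26±2° C., 70%–80% humidity, 16 h light; mortality (no response to touch) assessed after 48 h, three replicates with blank control.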

[3] = tested on: adult Tetranychus cinnabarinus; assay: Activity assay of adult Tetranychus cinnabarinus (whole-plant spray on bean seedlings); conditions: 48 h; for pest or weed control at 1.25 µg/mL: concentration 1.25 mg/L
Summary of the method: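 Bean seedlings at two-true-leaf stage, infested with adult mites and base count taken, sprayed whole-plant with compound in DMF (≤10%) diluted in 1‰ Tween 80. Three replicates per treatment kept in standard observation room. Surviving mites counted at 48 h to give death rate.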

[4] = spray, read-out: ovicidal activity
[5] = concentration 5 mg/L, spray, non-incubated eggs counted as dead, read-out: ovicidal activity
[6] = eggs, parallel determination, read-out: Death rate (%)
[7] = 48 h, concentration 2 mg/L, read-out: nymph-killing activity
[8] = 48 h, concentration 2.5 mg/L, read-out: nymph-killing activity
[9] = 48 h, nymphs, concentration 0.5 mg/L, parallel determination, read-out: Death rate (%)
[10] = adult mites, parallel determination, read-out: Death rate (%)
[11] = read-out: adult mite-killing activity
[12] = concentration 2.5 mg/L, read-out: adult mite-killing activity

Row | Compound | pest or weed control at 2 µg/mL [1, 4] [%] | pest or weed control at 5 µg/mL [1, 5] [%] | pest or weed control at 2 µg/mL [1, 6] [%] | pest or weed control at 2 µg/mL [2, 7] [%] | pest or weed control at 2.5 µg/mL [2, 8] [%] | pest or weed control at 0.5 µg/mL [2, 9] [%] | pest or weed control at 1.25 µg/mL [3, 10] [%] | pest or weed control at 1.25 µg/mL [3, 11] [%] | pest or weed control at 2.5 µg/mL [3, 12] [%] | pest or weed control at 5 µg/mL ([1]; read-out: ovicidal activity) [%] | pest or weed control at 2.5 µg/mL ([2]; 48 h, read-out: nymph-killing activity) [%] | pest or weed control at 2.5 µg/mL [3, 11] [%] | pest or weed control at 2.5 µg/mL ([2]; concentration 2.5 mg/L, 48 h, read-out: nymph-killing activity) [%]
1 | CCC(=O)OC(C)O/C(=C(/C#N)c1ccc(C(C)(C)C)cc1)c1cc(C)nn1CC (stereo not drawn) [Compound 252] | ≥ 90 | ≥ 90 | 100 | ≥ 90 | ≥ 95 | 100 | 100 | ≥ 90 | ≥ 90 | – | – | – | –
2 | CCCC(=O)OC(C)O/C(=C(/C#N)c1ccc(C(C)(C)C)cc1)c1cc(C)nn1CC (stereo not drawn) [Compound 253] | – | ≥ 90 | – | – | ≥ 95 | – | – | – | ≥ 90 | – | – | – | –
3 | CCn1nc(C)cc1/C(OC(C)OC(=O)C(C)C)=C(\C#N)c1ccc(C(C)(C)C)cc1 (stereo not drawn) [Compound 254] | ≥ 90 | ≥ 90 | 99 | ≥ 90 | ≥ 95 | 96 | 97 | ≥ 90 | ≥ 90 | – | – | – | –
4 | CCn1nc(C)cc1/C(OC(C)OC(=O)C(C)(C)C)=C(\C#N)c1ccc(C(C)(C)C)cc1 (stereo not drawn) [Compound 255] | ≥ 90 | ≥ 90 | 96 | ≥ 90 | ≥ 95 | 95 | 95 | ≥ 90 | ≥ 90 | – | – | – | –
5 | CCCCC(=O)OC(C)O/C(=C(/C#N)c1ccc(C(C)(C)C)cc1)c1cc(C)nn1CC (stereo not drawn) [Compound 256] | – | ≥ 90 | – | – | ≥ 95 | – | – | – | ≥ 90 | – | – | – | –
6 | CCn1nc(C)cc1/C(OC(C)OC(=O)COC)=C(\C#N)c1ccc(C(C)(C)C)cc1 (stereo not drawn) [Compound 258] | – | ≥ 90 | – | – | ≥ 95 | – | – | – | ≥ 90 | – | – | – | –
7 | CCn1nc(C)cc1/C(OC(C)OC(=O)C1CC1)=C(\C#N)c1ccc(C(C)(C)C)cc1 (stereo not drawn) [Compound 259] | ≥ 90 | ≥ 90 | – | ≥ 90 | ≥ 95 | – | – | ≥ 90 | ≥ 90 | – | – | – | –
8 | CCn1nc(C)cc1/C(OC(C)OC(=O)CSC)=C(\C#N)c1ccc(C(C)(C)C)cc1 (stereo not drawn) [Compound 260] | – | ≥ 90 | – | – | ≥ 95 | – | – | – | ≥ 90 | – | – | – | –
9 | CCn1nc(C)cc1/C(OC(C)OC(=O)C1CCCCC1)=C(\C#N)c1ccc(C(C)(C)C)cc1 (stereo not drawn) [Compound 261] | – | ≥ 90 | – | – | ≥ 95 | – | – | – | ≥ 90 | – | – | – | –
10 | CCn1nc(C)cc1/C(OC(C)OC(=O)CF)=C(\C#N)c1ccc(C(C)(C)C)cc1 (stereo not drawn) [Compound 262] | – | – | – | – | – | – | – | – | – | ≥ 90 | ≥ 95 | ≥ 90 | –
11 | CCn1nc(C)cc1/C(OC(C)OC(=O)C(F)(F)F)=C(\C#N)c1ccc(C(C)(C)C)cc1 (stereo not drawn) [Compound 263] | – | ≥ 90 | – | – | ≥ 95 | – | – | – | ≥ 90 | – | – | – | –
12 | CCn1nc(C)cc1/C(OC(C)OC(=O)c1ccccc1)=C(\C#N)c1ccc(C(C)(C)C)cc1 (stereo not drawn) [Compound 264] | – | ≥ 90 | – | – | ≥ 95 | – | – | – | ≥ 90 | – | – | – | –
13 | CCn1nc(C)cc1/C(OC(C)OC(=O)Cc1ccccc1)=C(\C#N)c1ccc(C(C)(C)C)cc1 (stereo not drawn) [Compound 265] | – | ≥ 90 | – | – | – | – | – | – | ≥ 90 | – | – | – | ≥ 95
14 | CCn1nc(C)cc1/C(OC(C)OC(=O)C(C)(C)CC)=C(\C#N)c1ccc(C(C)(C)C)cc1 (stereo not drawn) [Compound 266] | – | ≥ 90 | – | – | ≥ 95 | – | – | – | ≥ 90 | – | – | – | –
15 | C=CC(=O)OC(C)O/C(=C(/C#N)c1ccc(C(C)(C)C)cc1)c1cc(C)nn1CC (stereo not drawn) [Compound 267] | – | ≥ 90 | – | – | ≥ 95 | – | – | – | ≥ 90 | – | – | – | –
16 | CCn1nc(C)c(Cl)c1/C(OCOC(C)=O)=C(\C#N)c1ccc(C(C)(C)C)cc1 [Compound 301] | ≥ 90 | ≥ 90 | 95 | ≥ 90 | ≥ 95 | 90 | 90 | ≥ 90 | ≥ 90 | – | – | – | –
